The source of these data is ChEMBL document CHEMBL2440114, “Methanolysis of triterpenoid saponin from Ardisia gigantifolia stapf. and structure-activity relationship study against cancer cells” (Bioorg Med Chem Lett, 2013).

The test system of one assay is HCT-8. The assay can be described thus: Antiproliferative activity against human HCT8 cells by MTT assay. Format: functional, cell-based. Background: Tetrazolium dyes change colour on reduction, which living cells bring about.
Assay [1] relates to Bel-7402. The assay can be described thus: Antiproliferative activity against human Bel7402 cells by MTT assay. Format: functional, cell-based.
For another assay, the system named is A549. The assay can be described thus: Antiproliferative activity against human A549 cells by MTT assay. It is filed as functional, cell-based.
Another assay concerns EJ. The assay can be described thus: Cytotoxicity against human EJ cells. It is filed as functional, cell-based.
In another assay the test system is HepG2. In words: Cytotoxicity against human HepG2 cells. Format: functional, cell-based.
Assay [2] in a line: Cytotoxicity against human […] cells. It is filed as functional, cell-based.
Another assay deals with HeLa. In words: Cytotoxicity against human HeLa cells. Format: functional, cell-based.
Assay [3] relates to Bel-7402. In words: Cell cycle arrest in human Bel7402 cells assessed as accumulation in G2/M phase (reference value: 43.75+/- 1.1 %). Format: functional.
The test system of assay [4] is Bel-7402. The assay can be described thus: Cell cycle arrest in human Bel7402 cells assessed as accumulation in G1 phase (reference value: 37.6+/- 1.4 %). It is filed as functional.
In assay [5] the test system is Bel-7402. The assay can be described thus: Antiproliferative activity against human Bel7402 cells after 12 to 72 hrs by MTT assay. It is filed as functional, cell-based.
Assay [6] has as its system Bel-7402. The assay can be described thus: Antiproliferative activity against human Bel7402 cells at 0.5 to 20 uM by MTT assay. As to conditions: TDE = time-dependent effect. It is filed as functional, cell-based.

Bounds are passed on as bounds.

On to `C[C@@H]1O[C@@H](O[C@H]2[C@H](O)[C@@H](CO)O[C@@H](O[C@H]3CO[C@@H](O[C@H]4CC[C@]5(C)[C@H]6CC[C@]78OC[C@@]9(CC[C@](C)(CO)C[C@H]97)C(=O)C[C@@]8(C)[C@]6(C)CC[C@H]5C4(C)C)[C@H](O[C@@H]4O[C@H](CO)[C@@H](O)[C@H](O)[C@H]4O)[C@H]3O)[C@@H]2O[C@@H]2OC[C@@H](O)[C@H](O)[C@H]2O)[C@H](O)[C@H](O)[C@H]1O`, for which the IC50 (commonly the midpoint of a concentration-inhibition curve) worked out at 3.41 µM with HCT-8, 3.6 µM in the assay with Bel-7402 [1] and 3.77 µM in the assay on A549.
On to `CC(=O)OC[C@H]1O[C@@H](O[C@H]2[C@H](O[C@H]3CC[C@]4(C)[C@H]5CC[C@]67OC[C@@]8(CC[C@](C)(C=O)C[C@H]86)[C@H](O)C[C@@]7(C)[C@]5(C)CC[C@H]4C3(C)C)OC[C@H](O[C@@H]3O[C@H](CO)[C@@H](O)[C@H](O[C@@H]4O[C@@H](C)[C@H](O)[C@@H](O)[C@H]4O)[C@H]3O[C@@H]3OC[C@@H](O)[C@H](O)[C@H]3O)[C@@H]2O)[C@H](O)[C@@H](O)[C@@H]1O`, for which the figures for the IC50 in the assay on HCT-8, in the assay on Bel-7402 [1] and in the assay on A549 were 4.1 µM, 7.76 µM and 7.52 µM, respectively.
In the case of `O=c1[nH]cc(F)c(=O)[nH]1` [FLUOROURACIL], the values for the IC50 in the assay on HCT-8 and in the assay on Bel-7402 [1] were 6.92 µM and 8.3 µM, respectively.
For the compound `C[C@@H]1O[C@@H](O[C@H]2[C@H](O)[C@@H](CO)O[C@@H](O[C@H]3CO[C@@H](O[C@H]4CC[C@]5(C)[C@H]6CC[C@]78OC[C@@]9(CC[C@](C)(C=O)C[C@H]97)C(=O)C[C@@]8(C)[C@]6(C)CC[C@H]5C4(C)C)[C@H](O)[C@H]3O)[C@@H]2O[C@@H]2OC[C@@H](O)[C@H](O)[C@H]2O)[C@H](O)[C@H](O)[C@H]1O`, the IC50 came out at 7.73 µM in the assay with HCT-8, 6.9 µM with Bel-7402 [1] and 10 µM in the assay with A549.
On to `CCCCO[C@@H]1OC[C@]23CC[C@@]1(C)C[C@H]2C1=CC[C@@H]2[C@@]4(C)CC[C@H](O)C(C)(C)[C@@H]4CC[C@@]2(C)[C@]1(C)C[C@H]3O`, for which the IC50 was over 100 µM in the assay with HCT-8, 11.6 µM in the assay with Bel-7402 [1] and over 100 µM in the assay on A549.
For `CC(=O)OC[C@@]1(C)CC[C@]23CO[C@@]4(CC[C@@H]5[C@@]6(C)CC[C@H](O[C@@H]7OC[C@H](O[C@@H]8O[C@H](CO)[C@@H](O)[C@H](O[C@@H]9O[C@@H](C)[C@H](O)[C@@H](O)[C@H]9O)[C@H]8O[C@@H]8OC[C@@H](O)[C@H](O[C@@H]9O[C@H](CO)[C@@H](O)[C@H](O)[C@H]9O)[C@H]8O)[C@H](O)[C@H]7O[C@@H]7O[C@H](CO)[C@@H](O)[C@H](O)[C@H]7O)C(C)(C)[C@@H]6CC[C@@]5(C)[C@]4(C)C[C@H]2O)[C@@H]3C1`, the IC50 is 5.73 µM with HCT-8, 2.71 µM in the assay with Bel-7402 [1] and 6.33 µM in the assay with A549.
Take `CCCCO[C@H]1OC[C@]23CC[C@@]1(C)C[C@H]2C1=CC[C@@H]2[C@@]4(C)CC[C@H](O)C(C)(C)[C@@H]4CC[C@@]2(C)[C@]1(C)C[C@H]3O`: the IC50 was over 100 µM in the assay with HCT-8, 53.1 µM in the assay with Bel-7402 [1] and 44.3 µM in the assay on A549.
Turning to `C[C@@H]1O[C@@H](O[C@H]2[C@H](O)[C@@H](CO)O[C@@H](O[C@H]3CO[C@@H](O[C@H]4CC[C@]5(C)[C@H]6CC[C@]78OC[C@@]9(CC[C@](C)(CO)C[C@H]97)[C@H](O)C[C@@]8(C)[C@]6(C)CC[C@H]5C4(C)C)[C@H](O[C@@H]4O[C@H](CO)[C@@H](O)[C@H](O)[C@H]4O)[C@H]3O)[C@@H]2O[C@@H]2OC[C@@H](O)[C@H](O)[C@H]2O)[C@H](O)[C@H](O)[C@H]1O`, the IC50 was 8.63 µM with HCT-8, over 100 µM in the assay with Bel-7402 [1] and 31 µM in the assay on A549.
As to `CC(=O)OC[C@@]1(C)CC[C@]23CO[C@@]4(CC[C@@H]5[C@@]6(C)CC[C@H](O[C@@H]7OC[C@H](O[C@@H]8O[C@H](CO)[C@@H](O)[C@H](O[C@@H]9O[C@@H](C)[C@H](O)[C@@H](O)[C@H]9O)[C@H]8O[C@@H]8OC[C@@H](O)[C@H](O)[C@H]8O)[C@H](O)[C@H]7O[C@@H]7O[C@H](CO)[C@@H](O)[C@H](O)[C@H]7O)C(C)(C)[C@@H]6CC[C@@]5(C)[C@]4(C)C[C@H]2O)[C@@H]3C1`, the IC50 in the assay on HCT-8 is over 100 µM; with Bel-7402 [1], over 100 µM; in the assay with A549 it was 59.7 µM.
For `C[C@@H]1O[C@@H](O[C@H]2[C@H](O)[C@@H](CO)O[C@@H](O[C@H]3CO[C@@H](O[C@H]4CC[C@]5(C)[C@H]6CC[C@]78OC[C@@]9(CC[C@](C)(C=O)C[C@H]97)[C@H](O)C[C@@]8(C)[C@]6(C)CC[C@H]5C4(C)C)[C@H](O[C@@H]4O[C@H](CO)[C@@H](O)[C@H](O)[C@H]4O)[C@H]3O)[C@@H]2O[C@@H]2OC[C@@H](O)[C@H](O[C@@H]3O[C@H](CO)[C@@H](O)[C@H](O)[C@H]3O)[C@H]2O)[C@H](O)[C@H](O)[C@H]1O`, the IC50 turned out to be 2 µM with HCT-8, 3.2 µM with Bel-7402 [1] and 3.2 µM in the assay on A549.
For `C[C@@H]1O[C@@H](O[C@H]2[C@H](O)[C@@H](CO)O[C@@H](O[C@H]3CO[C@@H](O[C@H]4CC[C@]5(C)[C@H]6CC[C@]78OC[C@@]9(CC[C@](C)(C=O)C[C@H]97)[C@H](O)C[C@@]8(C)[C@]6(C)CC[C@H]5C4(C)C)[C@H](O[C@@H]4O[C@H](CO)[C@@H](O)[C@H](O)[C@H]4O)[C@H]3O)[C@@H]2O[C@@H]2OC[C@@H](O)[C@H](O)[C@H]2O)[C@H](O)[C@H](O)[C@H]1O`, the IC50 with EJ was 2 µM; in the assay on HepG2, 1.9 µM; in assay [2] it was 2.1 µM; in the assay with HeLa, 1.8 µM; in the assay with HCT-8, over 100 µM; in the assay on Bel-7402 [1] it was 1.58 µM. Besides, the IC50 with A549 is over 100 µM.
On to `CC1(C)CC[C@]23CO[C@@]4(CC[C@@H]5[C@@]6(C)CC[C@H](O[C@@H]7OC[C@H](O[C@@H]8O[C@H](CO)[C@@H](O)[C@H](O)[C@H]8O[C@@H]8OC[C@@H](O)[C@H](O)[C@H]8O)[C@H](O)[C@H]7O[C@@H]7O[C@H](CO)[C@@H](O)[C@H](O)[C@H]7O)C(C)(C)[C@@H]6CC[C@@]5(C)[C@]4(C)C[C@H]2O)[C@@H]3C1` [LYSIKOKIANOSIDE 1], for which the IC50 is 10.1 µM in the assay with HCT-8, 6.77 µM with Bel-7402 [1] and 4.37 µM in the assay on A549.
On to `CC1(C)[C@@H](O[C@@H]2OC[C@H](O[C@@H]3O[C@H](CO)[C@@H](O)[C@H](O)[C@H]3O[C@@H]3OC[C@@H](O)[C@H](O)[C@H]3O)[C@H](O)[C@H]2O)CC[C@]2(C)[C@H]3CC[C@]45OC[C@@]6(CC[C@](C)(C=O)C[C@H]64)[C@H](O)C[C@@]5(C)[C@]3(C)CC[C@@H]12` [PRIMULANIN], for which the IC50 in the assay with HCT-8 was 8.43 µM; with Bel-7402 [1] it was 10.3 µM; in the assay on A549, 12 µM.
In the case of `CCCCO[C@H]1OC[C@]23CC[C@@]1(C)C[C@H]2C1=CC[C@@H]2[C@@]4(C)CC[C@H](O[C@@H]5OC[C@H](O[C@@H]6O[C@H](CO)[C@@H](O)[C@H](O)[C@H]6O)[C@H](O)[C@H]5O[C@@H]5O[C@H](CO)[C@@H](O)[C@H](O)[C@H]5O)C(C)(C)[C@@H]4CC[C@@]2(C)[C@]1(C)C[C@H]3O`, the IC50 with HCT-8, with Bel-7402 [1] and in the assay with A549 was over 100 µM in each case.
Take `C[C@@H]1O[C@@H](O[C@H]2[C@H](O)[C@@H](CO)O[C@@H](O[C@H]3CO[C@@H](O[C@H]4CC[C@]5(C)[C@H]6CC[C@]78OC[C@@]9(CCC(C)(C)C[C@H]97)[C@H](O)C[C@@]8(C)[C@]6(C)CC[C@H]5C4(C)C)[C@H](O[C@@H]4O[C@H](CO)[C@@H](O)[C@H](O)[C@H]4O)[C@H]3O)[C@@H]2O[C@@H]2OC[C@@H](O)[C@H](O[C@@H]3O[C@H](CO)[C@@H](O)[C@H](O)[C@H]3O)[C@H]2O)[C@H](O)[C@H](O)[C@H]1O`: the Activity in the assay with Bel-7402 [3] is 59.94%; with Bel-7402 [4], 40.86%; with Bel-7402 [5], “Dose-dependent effect”; in the assay on Bel-7402 [6], “tde”. Also, the results for the IC50 with HCT-8, in the assay on Bel-7402 [1] and in the assay on A549 were 10.1 µM, 7.83 µM and 8.15 µM, respectively.
For `CCCCO[C@@H]1OC[C@]23CC[C@@]1(C)C[C@H]2C1=CC[C@@H]2[C@@]4(C)CC[C@H](O[C@@H]5OC[C@H](O[C@@H]6O[C@H](CO)[C@@H](O)[C@H](O)[C@H]6O)[C@H](O)[C@H]5O[C@@H]5O[C@H](CO)[C@@H](O)[C@H](O)[C@H]5O)C(C)(C)[C@@H]4CC[C@@]2(C)[C@]1(C)C[C@H]3O`, the IC50 is over 100 µM in the assay with HCT-8, 7.34 µM in the assay on Bel-7402 [1] and 10.6 µM with A549.
`CC(=O)OC[C@H]1O[C@@H](O[C@H]2[C@H](O[C@H]3CC[C@]4(C)[C@H]5CC[C@]67OC[C@@]8(CCC(C)(C)C[C@H]86)[C@H](O)C[C@@]7(C)[C@]5(C)CC[C@H]4C3(C)C)OC[C@H](O[C@@H]3O[C@H](CO)[C@@H](O)[C@H](O[C@@H]4O[C@@H](C)[C@H](O)[C@@H](O)[C@H]4O)[C@H]3O[C@@H]3OC[C@@H](O)[C@H](O)[C@H]3O)[C@@H]2O)[C@H](O)[C@@H](O)[C@@H]1O`: the IC50 in the assay on HCT-8 came out at 9.28 µM; in the assay on Bel-7402 [1] it was 8.4 µM; with A549, 8.06 µM.
